For 32 compounds, IC50 results are on record in patent US20260166039A1 (SCHRÖDINGER, INC., priority 2022, published 2026).

One may read the IC50 as the concentration that inhibits the measured activity by half.

Read-outs that look alike come from different tables or passages of the source.

The target of one test is T1, Wee1 kinase domain (Homo sapiens, UniProt P30291).
T1 construct: Wee1 kinase domain was purchased from Carna (catalog #05-177); purchased Carna 05-177
Briefly: Wee1 Kinase Biochemical Assay (ADP-Glo). To be noted: 15 uM ATP. In a few lines:
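Compounds tested against 1 nM Wee1 kinase domain in Tris buffer containing 20 mM MgCl2, BSA and 2 mM DTT, with 15 uM ATP and poly(Lys,Tyr) substrate for 4 h at 25 °C. Luminescent ADP detection gave percent inhibition, normalized to DMSO and saturating inhibitor.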
(In general: ADP-Glo turns the ADP formed in a reaction into a luminescent signal.)

The test system of test [1] is phosphorylation of Cdc2 Y15 (Wee1 substrate) in A427 cells. The test can be described thus: Phosphorylated Cdc2 MSD Electrochemiluminescence Assay. The format is cell-based. To be noted: Homo sapiens. In outline:
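Read-out: percent residual phospho-Cdc2 Y15 relative to DMSO and positive-control Wee1 inhibitor, measured by MSD electrochemiluminescence capture/detection antibody assay in cell lysates. A427 cells received duplicate 3-fold compound dilution series 20 h post-seeding, with 6 h total incubation at 37 °C.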

[2] abbreviates: class symbols, 1 nM Wee1 enzyme, 4 hours at 25° C.
The mark [3] stands for this setting: A-427, class symbols, read-out: A427 pCDC2 MSD IC50.

T1 sequence (P30291 299-569 limits assumed): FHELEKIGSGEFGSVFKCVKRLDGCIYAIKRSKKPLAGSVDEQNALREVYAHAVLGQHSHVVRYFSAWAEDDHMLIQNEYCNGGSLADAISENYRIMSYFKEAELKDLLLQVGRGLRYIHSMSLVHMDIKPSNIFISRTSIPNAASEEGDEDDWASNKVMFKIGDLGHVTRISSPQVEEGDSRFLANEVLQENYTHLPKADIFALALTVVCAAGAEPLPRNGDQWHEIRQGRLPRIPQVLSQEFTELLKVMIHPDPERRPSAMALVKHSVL

As to `CC1(C)C[C@H]2N(c3cccc(N=S(C)(C)=O)n3)c3nc(NC(=O)[C@@H]4C[C@H]4c4cccnc4)ncc3[C@@]2(C)CO1` (single isomer, unassigned) [Example 401], the IC50 at Wee1 kinase domain (setting [2]) is under 10 nM; in test [1] (setting [3]) it was 100 to 1000 nM.

For `CC1(C)C[C@H]2N(c3cccc(N=S(C)(C)=O)n3)c3nc(Nc4cnn(C5CCOCC5)c4)ncc3[C@@]2(C)CO1` (single isomer, unassigned) [Example 194], the IC50 against Wee1 kinase domain (Wee1 kinase domain, ADP-Glo) is under 10 nM; in test [1] (A-427, pCDC2 MSD) it was 100 to 1000 nM.

For `CC1(C)C[C@H]2N(c3cccc(N=S(C)(C)=O)n3)c3nc(Nc4ccc([C@@H]5CCCN5)nc4)ncc3[C@@]2(C)CO1` (single isomer, unassigned) [Example 214], the IC50 against Wee1 kinase domain (Wee1 kinase domain, ADP-Glo) is under 10 nM; in test [1] (A-427, pCDC2 MSD), 100 to 1000 nM.

Turning to `CC1(C)C[C@H]2N(c3cccc(N4CCCC4=O)n3)c3nc(Nc4ccc([C@H]5CCNC5)cc4)ncc3[C@@]2(C)CO1` [Example 636, 1-(6-((4bR,8aR)-4b,7,7-trimethyl-2-((4-((R)-pyrrolidin-3-yl)phenyl)amino)-4b,7,8,8a-tetrahydropyrano[3′,4′:4,5]pyrrolo[2,3-d]pyrimidin-9(5H)-yl)pyridin-2-yl)pyrrolidin-2-one], the IC50 at Wee1 kinase domain (setting [2]) was under 10 nM; in test [1] (setting [3]) it was 100 to 1000 nM.

For the compound `CNCc1ccc(Nc2ncc3c(n2)N(c2cccc(N4C(=O)CC[C@@H]4C)n2)[C@@H]2CC(C)(C)OC[C@]32C)cc1` (single isomer, unassigned) [Example 730], the IC50 on Wee1 kinase domain (setting [2]) was under 10 nM; in test [1] (setting [3]), 100 to 1000 nM.

`CC1(C)C[C@H]2N(c3cccc(N=S(C)(C)=O)n3)c3nc(NC(=O)[C@@H]4C[C@H]4C4CCOCC4)ncc3[C@@]2(C)CO1` (single isomer, unassigned) [Example 412]: the IC50 at Wee1 kinase domain (setting [2]) was under 10 nM; in test [1] (setting [3]), at least 10000 nM.

In the case of `Cn1cc(C(=O)Nc2ncc3c(n2)N(c2cccc(N=S(C)(C)=O)n2)[C@@H]2CC(C)(C)OC[C@]32C)cn1` (single isomer, unassigned) [Example 408], the IC50 is under 10 nM on Wee1 kinase domain (setting [2]) and 1000 to 10000 nM in test [1] (setting [3]).

Consider `CC1(C)C[C@H]2N(c3cccc(N=S(C)(C)=O)n3)c3nc(Nc4ccc(N5CCN6CCC[C@@H]6C5)cc4)ncc3[C@@]2(C)CO1` (single isomer, unassigned) [Example 505], for which the IC50 against Wee1 kinase domain (setting [2]) was under 10 nM; in test [1] (setting [3]) it was 100 to 1000 nM.

Consider `CN1CC[C@H](Oc2ccc(Nc3ncc4c(n3)N(c3cccc(C(C)(C)O)n3)[C@@H]3CC(C)(C)OC[C@]43C)cc2)C1` (single isomer, unassigned) [Example 421], for which the IC50 is under 10 nM against Wee1 kinase domain (setting [2]) and under 100 nM in test [1] (setting [3]).

As for `CNCc1cccc(N2c3nc(Nc4ccc(C5(C)COC5)cc4)ncc3[C@@]3(C)COC(C)(C)C[C@@H]23)n1` (single isomer, unassigned) [Example 84], the IC50 is under 10 nM against Wee1 kinase domain (Wee1 kinase domain, ADP-Glo) and 100 to 1000 nM in test [1] (A-427, pCDC2 MSD).

Take `CN1CC(c2ccc(Nc3ncc4c(n3)N(c3cccc(N=S(C)(C)=O)n3)[C@@H]3CC(C)(C)OC[C@]43C)cc2Cl)C1` (single isomer, unassigned) [Example 181]: the half-inhibitory concentration (IC50) against Wee1 kinase domain (Wee1 kinase domain, ADP-Glo) was under 10 nM; in test [1] (A-427, pCDC2 MSD), under 100 nM.

As to `Cc1cc(Nc2ncc3c(n2)N(c2cccc(C(=O)N(C)C)n2)[C@@H]2CC(C)(C)OC[C@]32C)ccc1C1CCN(C)CC1` (single isomer, unassigned) [Example 585], the results for the IC50 (on Wee1 kinase domain (setting [2]); in test [1] (setting [3])) were under 10 nM and 100 to 1000 nM, respectively.

`C[C@H]1CN(c2ccc(Nc3ncc4c(n3)N(c3cccc(N5C(=O)OC[C@@H]5C)n3)[C@@H]3CC(C)(C)OC[C@]43C)cc2)CCN1C` (single isomer, unassigned) [Example 315]: the IC50 against Wee1 kinase domain (Wee1 kinase domain, ADP-Glo) is under 10 nM; in test [1] (A-427, pCDC2 MSD), 100 to 1000 nM.

On to `CN1CCC[C@H]1c1ccc(Nc2ncc3c(n2)N(c2cccc(N=S(C)(C)=O)n2)[C@@H]2CC(C)(C)OC[C@]32C)cn1` (single isomer, unassigned) [Example 216], for which the half-inhibitory concentration (IC50) against Wee1 kinase domain (Wee1 kinase domain, ADP-Glo) was under 10 nM; in test [1] (A-427, pCDC2 MSD), 100 to 1000 nM.

For `CC1(C)C[C@H]2N(c3cccc(P(C)(C)=O)n3)c3nc(Nc4ccn(C5CCOCC5)c(=O)c4)ncc3[C@@]2(C)CO1` (single isomer, unassigned) [Example 780], the figures for the IC50 (against Wee1 kinase domain (setting [2]); in test [1] (setting [3])) were under 10 nM and under 100 nM, respectively.

Regarding `CNCc1cccc(N2c3nc(Nc4ccc5c(c4)C(=O)N(C)CC5(C)C)ncc3[C@@]3(C)COC(C)(C)C[C@@H]23)n1` (single isomer, unassigned) [Example 92], the IC50 against Wee1 kinase domain (Wee1 kinase domain, ADP-Glo) is under 10 nM; in test [1] (A-427, pCDC2 MSD), 100 to 1000 nM.

Consider `CN1CC(n2cc(Nc3ncc4c(n3)N(c3cccc(N=S(C)(C)=O)n3)[C@@H]3CC(C)(C)OC[C@]43C)cn2)C1` (single isomer, unassigned) [Example 207], for which the IC50 against Wee1 kinase domain (Wee1 kinase domain, ADP-Glo) is under 10 nM; in test [1] (A-427, pCDC2 MSD), 100 to 1000 nM.

`CC1(C)C[C@H]2N(c3cccc(N=S(C)(C)=O)n3)c3nc(Nc4ccc([C@H]5CCNC5)cc4)ncc3[C@@]2(C)CO1` (single isomer, unassigned) [Example 137]: the IC50 at Wee1 kinase domain (Wee1 kinase domain, ADP-Glo) was under 10 nM; in test [1] (A-427, pCDC2 MSD), under 100 nM.

In the case of `CN=[S@](C)(=O)c1cccc(N2c3nc(Nc4ccc(N5CCN(C)CC5)cc4)ncc3[C@@]3(C)COC(C)(C)C[C@@H]23)n1` (single isomer, unassigned) [Example 766], the IC50 is under 10 nM at Wee1 kinase domain (setting [2]) and 100 to 1000 nM in test [1] (setting [3]).

Consider `CN1CCC(c2ccc(Nc3ncc4c(n3)N(c3cccc(N=S(C)(C)=O)n3)[C@@H]3CC(C)(C)OC[C@]43C)cn2)CC1` (single isomer, unassigned) [Example 140], for which the IC50 was under 10 nM at Wee1 kinase domain (Wee1 kinase domain, ADP-Glo) and under 100 nM in test [1] (A-427, pCDC2 MSD).

Take `CC1(C)C[C@H]2N(c3cccc(N=S(C)(C)=O)n3)c3nc(Nc4ccc5nccn5c4)ncc3[C@@]2(C)CO1` (single isomer, unassigned) [Example 504]: the IC50 against Wee1 kinase domain (setting [2]) was under 10 nM; in test [1] (setting [3]) it was 100 to 1000 nM.

For the compound `CNCc1cccc(N2c3nc(Nc4ccc(N5[C@@H]6COC[C@H]5C6)cc4)ncc3[C@@]3(C)COC(C)(C)C[C@@H]23)n1` (single isomer, unassigned) [Example 479], the values for the IC50 (at Wee1 kinase domain (setting [2]); in test [1] (setting [3])) were under 10 nM and 100 to 1000 nM, respectively.

As to `CC(C)n1ccc(N2c3nc(Nc4ccc(N5CCN(C)CC5)cc4)ncc3[C@@]3(C)COC(C)(C)C[C@@H]23)n1` (single isomer, unassigned) [Example 721], the IC50 on Wee1 kinase domain (setting [2]) is under 10 nM; in test [1] (setting [3]), 100 to 1000 nM.

In the case of `CN1CCN(c2ccc(Nc3ncc4c(n3)N(c3nccs3)[C@@H]3CC(C)(C)OC[C@]43C)cc2)CC1` (single isomer, unassigned) [Example 726], the IC50 was under 10 nM against Wee1 kinase domain (setting [2]) and 100 to 1000 nM in test [1] (setting [3]).

On to `Cc1cc(Nc2ncc3c(n2)N(c2cccc(N=S(C)(C)=O)n2)[C@@H]2CC(C)(C)OC[C@]32C)ccc1[C@H]1CCNC1` (single isomer, unassigned) [Example 149], for which the IC50 was under 10 nM at Wee1 kinase domain (Wee1 kinase domain, ADP-Glo) and 100 to 1000 nM in test [1] (A-427, pCDC2 MSD).

Take `CN1C[C@@H]2C[C@H]1CN2c1ccc(Nc2ncc3c(n2)N(c2cccc(N4CCCC4=O)n2)[C@@H]2CC(C)(C)OC[C@]32C)cc1F` [Example 640, 1-(6-((4bR,8aR)-2-((3-fluoro-4-((1S,4S)-5-methyl-2,5-diazabicyclo[2.2.1]heptan-2-yl)phenyl)amino)-4b,7,7-trimethyl-4b,7,8,8a-tetrahydropyrano[3′,4′:4,5]pyrrolo[2,3-d]pyrimidin-9(5H)-yl)pyridin-2-yl)pyrrolidin-2-one]: the IC50 against Wee1 kinase domain (setting [2]) is under 10 nM; in test [1] (setting [3]), 100 to 1000 nM.

As for `CCn1ccc(N2c3nc(Nc4ccc(N5CCN(C)CC5)cc4)ncc3[C@@]3(C)COC(C)(C)C[C@@H]23)n1` (single isomer, unassigned) [Example 744], the IC50 is under 10 nM against Wee1 kinase domain (setting [2]) and 1000 to 10000 nM in test [1] (setting [3]).

As to `CN1C[C@@H]2C[C@H]1CN2c1ccc(Nc2ncc3c(n2)N(c2cccc(C4(O)COC4)n2)[C@@H]2CC(C)(C)OC[C@]32C)cc1` (single isomer, unassigned) [Example 518], the IC50 was under 10 nM against Wee1 kinase domain (setting [2]) and 100 to 1000 nM in test [1] (setting [3]).

Consider `CN[C@H]1CCc2ccc(N3c4nc(Nc5ccc(N6CCOCC6)cc5)ncc4C4(C)COC(C)(C)CC34)nc21` (stereo in doubt) [Example 551, (4bR,8aR)-4b,7,7-trimethyl-9-((S)-7-(methylamino)-6,7-dihydro-5H-cyclopenta[b]pyridin-2-yl)-N-(4-morpholinophenyl)-4b,5,7,8,8a,9-hexahydropyrano[3′,4′:4,5]pyrrolo[2,3-d]pyrimidin-2-amine], for which the IC50 against Wee1 kinase domain (setting [2]) is under 10 nM; in test [1] (setting [3]), under 100 nM.

For the compound `CNCc1cccc(N2c3nc(Nc4ccc(N5CCOC[C@@H]5C)cc4)ncc3[C@@]3(C)COC(C)(C)C[C@@H]23)n1` (single isomer, unassigned) [Example 476], the IC50 against Wee1 kinase domain (setting [2]) was under 10 nM; in test [1] (setting [3]), 100 to 1000 nM.

Consider `CN1CCC(c2ccc(Nc3ncc4c(n3)N(c3cccc(N=S(C)(C)=O)n3)[C@H]3CC(C)(C)OC[C@@]43C)cc2)CC1` (single isomer, unassigned) [Example 112], for which the IC50 is under 10 nM against Wee1 kinase domain (Wee1 kinase domain, ADP-Glo) and under 100 nM in test [1] (A-427, pCDC2 MSD).

For `CNC1(c2cccc(N3c4nc(Nc5ccc(C6CCN(C)CC6)c(C)c5)ncc4[C@@]4(C)COC(C)(C)C[C@@H]34)n2)CC1` (single isomer, unassigned) [Example 575], the IC50 against Wee1 kinase domain (setting [2]) was under 10 nM; in test [1] (setting [3]), under 100 nM.
